Measurements published in ChEMBL document CHEMBL1201862, “PubChem BioAssay data set” (2004).
Activity calls are given as the source filed them.

Tests used:
[1] = target: Sphingosine 1-phosphate receptor 2 (Homo sapiens, UniProt O95136); experiment: Dose Response Cell Based Assay for Antagonists of the S1P2 Receptor. [Related pubchem assays: 856, 736 ]; assay type: functional
[2] = target: Sphingosine 1-phosphate receptor 1 (Homo sapiens, UniProt P21453); assay type: functional;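 further: Tango beta-arrestin reporter U2OS cells stimulated with S1P near its EC80; inhibitor potency meaning antagonism of receptor activation by the natural agonist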
[3] = target: Heat shock protein HSP 90-alpha (Homo sapiens, UniProt P07900); assay type: functional, organism-based
Hexokinase-1 = target: T1, Hexokinase-1 (Homo sapiens, UniProt P19367); experiment: HK1 enzyme activation by HKDC1 hits – biochemical, selectivity assay for HKDC1 activator project, dose response (AID 504762); assay type: functional
T1 sequence (P19367 whole entry): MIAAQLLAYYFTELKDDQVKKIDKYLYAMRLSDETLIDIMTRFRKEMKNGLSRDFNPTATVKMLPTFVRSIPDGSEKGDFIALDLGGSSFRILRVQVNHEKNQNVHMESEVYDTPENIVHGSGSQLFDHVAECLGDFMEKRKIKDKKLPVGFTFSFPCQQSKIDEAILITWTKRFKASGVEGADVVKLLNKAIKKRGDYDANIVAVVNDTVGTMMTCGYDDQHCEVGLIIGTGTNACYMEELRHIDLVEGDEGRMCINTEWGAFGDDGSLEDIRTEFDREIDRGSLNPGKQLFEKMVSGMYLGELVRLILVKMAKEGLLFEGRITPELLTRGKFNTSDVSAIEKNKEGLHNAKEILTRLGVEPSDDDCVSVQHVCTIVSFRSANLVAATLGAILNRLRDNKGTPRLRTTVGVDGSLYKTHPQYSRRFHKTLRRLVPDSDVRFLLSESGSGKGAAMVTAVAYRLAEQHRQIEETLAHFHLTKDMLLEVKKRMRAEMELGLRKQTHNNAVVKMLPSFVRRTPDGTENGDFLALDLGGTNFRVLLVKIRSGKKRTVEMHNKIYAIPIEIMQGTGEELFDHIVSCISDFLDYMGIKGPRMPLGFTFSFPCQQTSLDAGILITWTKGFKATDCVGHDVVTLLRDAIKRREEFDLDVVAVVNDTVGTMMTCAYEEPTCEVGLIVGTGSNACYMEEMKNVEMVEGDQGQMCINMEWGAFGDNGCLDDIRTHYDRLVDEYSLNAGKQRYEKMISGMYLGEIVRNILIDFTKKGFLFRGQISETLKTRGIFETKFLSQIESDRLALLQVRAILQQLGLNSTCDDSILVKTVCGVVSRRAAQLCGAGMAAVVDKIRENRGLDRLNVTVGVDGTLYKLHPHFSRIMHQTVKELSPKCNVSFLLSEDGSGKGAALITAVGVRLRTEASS

Caspase-8 = Caspase-8 (Homo sapiens, UniProt Q14790); experiment: inhibitors of purified CASP8 protease – biochemical, Z-IETD-R110 fluorescence, cherry-picked samples, selectivity assay for caspase-6 inhibitor project, dose response (AID 743294)
[4] = target: T2, Sentrin-specific protease 7 (Homo sapiens, UniProt Q9BQF6); experiment: inhibition of human SENP7 cleavage activity – biochemical, luminescence, SAR follow-up (AID 504497); assay type: functional
T2 sequence (Q9BQF6 whole entry): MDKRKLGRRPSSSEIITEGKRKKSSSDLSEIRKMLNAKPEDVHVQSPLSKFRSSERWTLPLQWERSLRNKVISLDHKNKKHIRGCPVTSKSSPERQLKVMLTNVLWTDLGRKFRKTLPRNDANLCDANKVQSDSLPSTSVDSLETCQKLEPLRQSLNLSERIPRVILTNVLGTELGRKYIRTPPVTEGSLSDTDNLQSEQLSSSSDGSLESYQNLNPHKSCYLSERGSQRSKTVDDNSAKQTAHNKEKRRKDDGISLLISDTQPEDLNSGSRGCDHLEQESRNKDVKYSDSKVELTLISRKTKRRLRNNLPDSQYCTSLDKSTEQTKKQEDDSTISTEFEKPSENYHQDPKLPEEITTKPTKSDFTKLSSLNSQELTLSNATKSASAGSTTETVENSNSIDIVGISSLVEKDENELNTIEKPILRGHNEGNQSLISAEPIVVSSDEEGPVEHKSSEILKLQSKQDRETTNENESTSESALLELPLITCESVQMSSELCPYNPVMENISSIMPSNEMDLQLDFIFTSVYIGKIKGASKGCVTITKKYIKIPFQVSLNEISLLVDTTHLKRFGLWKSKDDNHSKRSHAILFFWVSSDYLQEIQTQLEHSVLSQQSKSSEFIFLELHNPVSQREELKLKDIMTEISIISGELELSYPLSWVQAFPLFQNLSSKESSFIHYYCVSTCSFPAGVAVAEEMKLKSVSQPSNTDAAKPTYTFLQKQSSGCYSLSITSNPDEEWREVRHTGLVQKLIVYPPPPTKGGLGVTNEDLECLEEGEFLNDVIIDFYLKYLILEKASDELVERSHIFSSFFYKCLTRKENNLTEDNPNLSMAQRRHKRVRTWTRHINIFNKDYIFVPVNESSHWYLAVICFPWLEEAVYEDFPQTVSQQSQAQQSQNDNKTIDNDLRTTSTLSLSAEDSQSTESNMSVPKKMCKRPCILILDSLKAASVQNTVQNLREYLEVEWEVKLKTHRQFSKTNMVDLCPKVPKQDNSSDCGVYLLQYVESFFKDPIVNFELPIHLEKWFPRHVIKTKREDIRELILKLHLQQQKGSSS

Caspase-3 = target: T3, Caspase-3 (Homo sapiens, UniProt P42574); experiment: SAR Analysis of small molecule inhibitors of Sentrin-specific proteases (SENPs) using a Caspase-3 Selectivity assay. [Related pubchem assays (depositor defined):AID2540, AID2599, AID434973, AID489001]; assay type: functional
T3 sequence (P42574 whole entry): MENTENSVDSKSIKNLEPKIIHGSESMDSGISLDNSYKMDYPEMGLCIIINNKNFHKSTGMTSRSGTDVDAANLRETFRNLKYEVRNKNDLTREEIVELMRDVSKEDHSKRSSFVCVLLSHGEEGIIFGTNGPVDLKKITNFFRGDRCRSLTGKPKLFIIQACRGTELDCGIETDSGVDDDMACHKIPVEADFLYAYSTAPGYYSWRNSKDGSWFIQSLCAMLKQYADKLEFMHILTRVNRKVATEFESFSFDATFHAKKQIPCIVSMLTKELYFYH

[5] = fluconazole-exposed Candida albicans growth modulators – fluorescence, retest, confirmation (AID 2467); assay type: functional, cell-based

Sequence of Caspase-8 (Q14790 217-374 limits assumed): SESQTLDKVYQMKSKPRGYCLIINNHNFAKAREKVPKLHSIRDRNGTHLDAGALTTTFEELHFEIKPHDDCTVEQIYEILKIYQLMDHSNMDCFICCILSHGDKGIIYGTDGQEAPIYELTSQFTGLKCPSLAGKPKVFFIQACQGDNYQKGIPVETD
Sequence of Caspase-8 (Q14790 385-479 limits assumed): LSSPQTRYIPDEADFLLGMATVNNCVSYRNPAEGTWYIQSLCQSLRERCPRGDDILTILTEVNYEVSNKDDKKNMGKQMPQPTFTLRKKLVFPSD
Sequence of Sphingosine 1-phosphate receptor 1 (P21453 whole entry): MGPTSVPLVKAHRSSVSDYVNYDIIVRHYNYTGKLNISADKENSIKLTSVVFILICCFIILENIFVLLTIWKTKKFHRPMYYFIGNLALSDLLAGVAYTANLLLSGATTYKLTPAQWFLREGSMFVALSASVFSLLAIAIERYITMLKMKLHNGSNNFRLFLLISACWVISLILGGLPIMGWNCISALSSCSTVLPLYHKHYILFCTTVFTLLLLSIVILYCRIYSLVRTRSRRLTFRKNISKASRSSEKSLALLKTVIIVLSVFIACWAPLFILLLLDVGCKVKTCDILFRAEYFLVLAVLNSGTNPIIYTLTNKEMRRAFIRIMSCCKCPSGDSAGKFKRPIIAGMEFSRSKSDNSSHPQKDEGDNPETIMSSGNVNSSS
Sequence of Sphingosine 1-phosphate receptor 2 (O95136 whole entry): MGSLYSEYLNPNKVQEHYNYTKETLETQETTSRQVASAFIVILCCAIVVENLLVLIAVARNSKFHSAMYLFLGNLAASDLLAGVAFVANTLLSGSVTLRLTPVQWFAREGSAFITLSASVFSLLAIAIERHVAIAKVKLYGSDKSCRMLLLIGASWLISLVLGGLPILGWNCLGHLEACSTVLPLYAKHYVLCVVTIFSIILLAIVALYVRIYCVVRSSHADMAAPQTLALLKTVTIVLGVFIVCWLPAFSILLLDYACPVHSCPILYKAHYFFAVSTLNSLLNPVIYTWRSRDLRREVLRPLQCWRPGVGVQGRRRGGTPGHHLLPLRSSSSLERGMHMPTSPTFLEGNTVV

SMILES: Cn1nc(-c2ccc(Cl)cc2)nc2c(=O)n(C)c(=O)nc1-2
- IC50 [1]: 0.996 µM (active)
- IC50 [2]: 2.34 µM (active)

SMILES: SC1=Nc2ccccc2C1
- AC50 [3]: 3.88 µM (active)
- EC50 (Hexokinase-1): 19.3 µM (active)

SMILES: NS(=O)(=O)c1ccc(NC(=O)COC(=O)c2ccc([N+](=O)[O-])s2)cc1
- AC50 (Caspase-8): 20.3 µM (active)

SMILES: CCCCNc1cc(NC(C)=O)cc2cc(OC)c(OC)cc12
- IC50 [4]: > 99 µM (inactive)
- IC50 (Caspase-3): > 99 µM (inactive)

SMILES: COc1ccc(C(NC(=O)C(C)C)c2ccc3cccnc3c2O)cc1 (stereo not drawn)
- EC50 [5]: 0.692 µM (active)
